In paper PMC10910531 one finds ring closure, isolated yield data, which are given here for 37 molecules.

Data set [1] is described as follows: CRE method A: lactone/lactam formation, T3P + DIPEA, internal nucleophile (pyridine/amine) cascade. The following applies: the molecule shown is the open-chain precursor, CHCl3, 50.0 mM, 22.0 °C.
The nature of data set [2]: CRE method B: lactone/thiolactone/lactam formation, EDC.HCl + HOBt + DIPEA. The following applies: DMF, 100.0 mM, 22.0 °C.
Data set [3] is described as follows: CRE method C: cyclic carbamate/urea formation with triphosgene + Et3N. As to conditions: the molecule shown is the open-chain precursor, CH2Cl2, 100.0 mM, 22.0 °C.
Data set [4] in a line: CRE method E: cyclic oxalate-type (1,2-dicarbonyl) formation with oxalyl chloride + Et3N. As to conditions: the molecule shown is the open-chain precursor, CH2Cl2, 50.0 mM, 22.0 °C.
A short description of data set [5]: CRE method F: cyclic sulfite/sulfamidite formation with SOCl2 + DMAP. The following applies: the molecule shown is the open-chain precursor, CH2Cl2, 50.0 mM, 22.0 °C, 18.0 h.

In the case of `CC(O)Cc1cccc(-c2ccccc2CC(=O)O)n1` (stereo not shown) [8 -> 9], the ring closure, isolated yield in data set [1] (10-membered ring, 0.5 h) stood at 90%. Take `CC(O)Cc1cccc(-c2ccccc2CC(=O)O)c1` (stereo not shown) [10 -> 11 (control)]: the ring closure, isolated yield in data set [1] (10-membered ring) turned out to be 0%. As to `O=C1OCCCSCc2ccccc21` [12 -> 13], the ring closure, isolated yield in data set [2] (from O=C(O)c1ccccc1CSCCCO, 9-membered ring, 18.0 h) worked out at 86%. `O=C1OCCCCCc2ccccc21` [14 -> 15 (control)]: the ring closure, isolated yield in data set [2] (from O=C(O)c1ccccc1CCCCCO, 9-membered ring, 18.0 h) came to 43%. With `O=C(Cl)N(CCN(CCCO)c1ccccc1)c1ccccc1` [16 -> 17], the ring closure, isolated yield in data set [3] (9-membered ring, 0.5 h) stood at 62%. Consider `O=C(Cl)N(CCCCCCO)c1ccccc1` [18 -> 19 (control)], for which the ring closure, isolated yield in data set [3] (9-membered ring) turned out to be 0%.

As for `CN(CCCO)c1ccccc1N(C)C(=O)C(=O)Cl` [24 -> 25], in data set [4] (10-membered ring, 18.0 h), the ring closure, isolated yield is 73%. Same read-out and setting: as for `CN(C(=O)C(=O)Cl)c1ccccc1CCCCO` [26 -> 27 (control)], the figure is 9%. Turning to `O=S(Cl)OCCCN(CCCO)Cc1ccccc1` (stereo not shown) [28 -> 29], the ring closure, isolated yield in data set [5] (10-membered ring) amounted to 86%. The same measure, in the same setting: as for `O=S(Cl)OCCCCCCCO` (stereo not shown) [30 -> 31 (control)], the figure is 8%. With `CNCCCN(C)CCCN(C)C(=O)C(=O)Cl` [34 -> 98], the ring closure, isolated yield in data set [4] (11-membered ring, 18.0 h) stood at 71%. `O=C1OCCSCc2ccccc21` [47]: the ring closure, isolated yield in data set [2] (from O=C(O)c1ccccc1CSCCO, 8-membered ring) was found to be 88%. As for `O=C1OCCCSCc2c(Br)cccc21` [49c], the ring closure, isolated yield in data set [2] (from O=C(O)c1cccc(Br)c1CSCCCO, 9-membered ring) is 67%.

Turning to `O=C1OCCCSCc2c1cccc2[N+](=O)[O-]` [50], the ring closure, isolated yield in data set [2] (from O=C(O)c1cccc([N+](=O)[O-])c1CSCCCO, 9-membered ring, 24.0 h) turned out to be 47%. Take `O=C1OCCCSCc2ccc(F)cc21` [S30 -> 48]: the ring closure, isolated yield in data set [2] (from O=C(O)c1cc(F)ccc1CSCCCO, 9-membered ring, 18.0 h) was 80%.

For the molecule `CC1CCSCc2ccccc2C(=O)O1` (stereo not shown) [S43 -> 51], the ring closure, isolated yield in data set [2] (from CC(O)CCSCc1ccccc1C(=O)O, 9-membered ring, 16.0 h) was 71%.

Regarding `CC(O)Cc1cncc(-c2ccccc2CC(=O)O)n1` (stereo not shown) [S52 -> 55], the ring closure, isolated yield in data set [1] (10-membered ring, 0.5 h) came out at 90%. For `CN1CCOC(=O)c2ccccc2-c2ccccc21` [S63 -> 60], in data set [2] (from CN(CCO)c1ccccc1-c1ccccc1C(=O)O, 9-membered ring, 24.0 h), the ring closure, isolated yield was 72%. Consider `CN1CCCOC(=O)c2ccccc2-c2ccccc21` [S67 -> 61], for which the ring closure, isolated yield in data set [2] (from CN(CCCO)c1ccccc1-c1ccccc1C(=O)O, 10-membered ring, 24.0 h) worked out at 72%. For `CC1CN(C)c2ccccc2-c2ccccc2C(=O)O1` (stereo not shown) [S69 -> 62], the ring closure, isolated yield in data set [2] (from CC(O)CN(C)c1ccccc1-c1ccccc1C(=O)O, 9-membered ring, 24.0 h) came out at 81%.

Consider `CC1CCN(C)c2ccccc2-c2ccccc2C(=O)O1` (stereo not shown) [S71 -> 63], for which the ring closure, isolated yield in data set [2] (from CC(O)CCN(C)c1ccccc1-c1ccccc1C(=O)O, 10-membered ring, 24.0 h) worked out at 78%.

In the case of `C=CCNC(C)Cc1cccc(-c2ccccc2CC(=O)O)n1` (stereo not shown) [S74 -> 64 (2 steps)], the ring closure, isolated yield in data set [1] (10-membered ring, 0.5 h) came to 75%. The same measure, in the same setting: as for `CC(Cc1cccc(-c2ccccc2CC(=O)O)n1)Nc1ccccc1` (stereo not shown) [S77 -> 65 (quantitative)], the figure is 100%. Turning to `CCNCCCN(CC)Cc1ccccc1C(=O)O` [S84-derived acid -> 68 (2 steps)], in data set [1] (9-membered ring), the ring closure, isolated yield is 54%. With `O=C1SCCCSCc2ccccc21` [S86 -> 69], the ring closure, isolated yield in data set [2] (from O=C(O)c1ccccc1CSCCCS, 9-membered ring, 16.0 h) worked out at 65%. As to `CN(CCCN)CCCC(=O)O` [S104-derived amino acid -> 78 (2 steps)], in data set [1] (9-membered ring), the ring closure, isolated yield was 65%. For the molecule `O=C1c2ccccc2CN(Cc2ccccc2)CC2CCCCN12` (stereo not shown) [S108 -> 79], the ring closure, isolated yield in data set [2] (from O=C(O)c1ccccc1CN(Cc1ccccc1)CC1CCCCN1, 8-membered ring, 18.0 h) was determined as 82%.

`CN1CCCC(=O)Oc2ccccc21` [S114 -> 81 (2 steps)]: the ring closure, isolated yield in data set [2] (from CN(CCCC(=O)O)c1ccccc1O, 8-membered ring, 18.0 h) was 78%. For `CN(C(=O)Cl)c1ccccc1-c1cccc(CCO)n1` [S124 -> 84], in data set [3] (10-membered ring, 18.0 h), the ring closure, isolated yield came out at 59%.

For the molecule `CN(c1ccccc1-c1cccc(CCO)n1)S(=O)Cl` (stereo not shown) [S124 -> 86], in data set [5] (10-membered ring), the ring closure, isolated yield was 46%. As for `CN(C(=O)Cl)c1ccccc1-c1cccc(CC(O)c2ccccc2)n1` (stereo not shown) [S126 -> 85 (NMR yield)], in data set [3] (10-membered ring, 18.0 h), the ring closure, isolated yield was 34%.

With `CC(Cc1cccc(-c2ccccc2CO)n1)N(C(=O)C(=O)Cl)c1ccccc1` (stereo not shown) [S127 -> 87], the ring closure, isolated yield in data set [4] (12-membered ring, 3.0 h) turned out to be 71%.

Take `CC(O)Cc1cccc(-c2ccccc2COS(=O)Cl)n1` (stereo not shown) [S129 -> 88]: the ring closure, isolated yield in data set [5] (11-membered ring) was found to be 58%.

With `O=S(Cl)OCCCN(CCCO)c1ccccc1` (stereo not shown) [S130 -> 89], the ring closure, isolated yield in data set [5] (10-membered ring) came out at 40%. As for `O=C(Cl)N(CCCN(CCCO)c1ccccc1)c1ccccc1` [S138 -> 94], the ring closure, isolated yield in data set [3] (10-membered ring, 18.0 h) was determined as 78%. With `O=C(Cl)C(=O)N(CCc1cccc(CCNc2ccccc2)n1)c1ccccc1` [S140 -> 96], the ring closure, isolated yield in data set [4] (11-membered ring, 0.5 h) amounted to 51%. With `O=C(Cl)N(CCc1cccc(CCNc2ccccc2)n1)c1ccccc1` [S140 -> 97], the ring closure, isolated yield in data set [3] (10-membered ring, 18.0 h) came to 49%.
